Biological target: T1, human CTPS1 (Homo sapiens, UniProt P17812)
T1 construct: purchased Proteros biostructures GmbH
T1 sequence (P17812 1-591): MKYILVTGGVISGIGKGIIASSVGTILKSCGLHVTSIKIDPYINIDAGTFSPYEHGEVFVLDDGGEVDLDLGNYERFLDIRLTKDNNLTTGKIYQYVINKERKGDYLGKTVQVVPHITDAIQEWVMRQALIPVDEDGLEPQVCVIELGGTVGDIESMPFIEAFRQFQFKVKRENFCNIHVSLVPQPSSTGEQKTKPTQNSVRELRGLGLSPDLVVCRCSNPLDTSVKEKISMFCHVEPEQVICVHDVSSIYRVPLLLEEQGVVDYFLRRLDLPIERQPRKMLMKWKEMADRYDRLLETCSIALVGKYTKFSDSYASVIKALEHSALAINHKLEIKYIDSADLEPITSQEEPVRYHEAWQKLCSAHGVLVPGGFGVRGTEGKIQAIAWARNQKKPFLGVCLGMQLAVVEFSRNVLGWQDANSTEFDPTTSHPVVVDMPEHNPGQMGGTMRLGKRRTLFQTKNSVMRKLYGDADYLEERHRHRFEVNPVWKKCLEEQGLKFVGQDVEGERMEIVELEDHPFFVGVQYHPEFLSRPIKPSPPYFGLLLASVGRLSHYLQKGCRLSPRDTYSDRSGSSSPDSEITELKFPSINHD
Test: Human CTPS1 enzyme inhibition (ADP-Glo Max assay)
Format: biochemical
Details: Table 23; ADP-Glo Max assay; read-out: CTPS1 (Human CTPS1 Enzyme Inhibition data grouped by potency range, IC50)
Description: Biological Example 1—Human CTPS1 Enzyme Inhibition
The enzyme inhibitory activities of compounds invented against the target of interest were determined using the ADP-Glo™ Max assay (Promega, UK). Assays for human CTPS1 were performed in 1× assay buffer containing 50 mM Tris, 10 mM MgCl2, 0.01% Tween-20, pH to 8.0 accordingly. Finally, immediately before use, L-cysteine was added to the 1× assay buffer to a final concentration of 2 mM. All reagents are from Sigma-Aldrich unless specified otherwise. Human full length active C-terminal FLAG-Hiss-tag CTPS1 (UniProtKB-P17812, CTPS[1-591]-[…]) was obtained from Proteros biostructures GmbH.
3× human CTPS1 protein was prepared in 1× assay buffer to the final working protein concentration required for the reaction. A 2 uL volume per well of 3× human CTPS1 protein was mixed with 2 uL per well of 3× test compound (compound prepared in 1× assay buffer to an appropriate final 3× compound concentration respective to the concentration response curve designed for the compounds under test) for 10 minutes at 25° C. The enzymatic reaction was then initiated by addition of a 2 uL per well volume of a pre-mixed substrate mix (UltraPure ATP from ADP-Glo™ Max kit (0.31 mM), GTP (0.034 mM), UTP (0.48 mM) and L-glutamine (0.186 mM)) and the mixture was incubated for an appropriate amount of time within the determined linear phase of the reaction at 25° C. under sealed plate conditions with constant agitation at 500 revolutions per minute (rpm). ADP-Glo™ Max reagent was added for 60 minutes (6 μL per well) and subsequently ADP-Glo™ Max development reagent was added for 60 minutes (12 uL per well) prior to signal detection in a microplate reader (EnVision® Multilabel Reader, Perkin Elmer). Following each reagent addition over the course of the assay, assay plates were pulse centrifuged for 30 seconds at 500 rpm.
In all cases, the enzyme converts ATP to ADP and the ADP-Glo™ Max reagent subsequently depletes any remaining endogenous ATP in the reaction system. The ADP-Glo™ Max detection reagent converts the ADP that has been enzymatically produced back into ATP and using ATP as a substrate together with luciferin for the enzyme luciferase, light is generated which produces a detectable luminescence. […] The percentage inhibition produced by each concentration of compound was calculated using the equation shown below: […]
Percentage inhibition was then plotted against compound concentration, and the 50% inhibitory concentration (IC50) was determined from the resultant concentration-response curve.

Row | Compound | IC50 [nM]
1 | CC(C)(C(=O)Nc1ccc(-c2cccc(C#N)c2)cc1)c1ccnc(NS(=O)(=O)C2CC2)n1 [Example P62] | 1000 to 10000
2 | CCOc1cccc(-c2ccc(NC(=O)C(C)(C)c3ccnc(NS(=O)(=O)C4CC4)n3)cc2)c1 [Example P63] | 10000 to 20000
3 | CC(C)(C(=O)Nc1ccc(-c2cncc(C(F)(F)F)n2)cc1)c1ccnc(NS(=O)(=O)C2CC2)n1 [Example P64] | ≤ 100
4 | CCOc1cncc(-c2ccc(NC(=O)C(C)(C)c3ccnc(NS(=O)(=O)C4CC4)n3)cc2)n1 [Example P65] | ≤ 100
5 | CC(C)(C(=O)Nc1ccc(-c2cncc(OC3CC3)n2)cc1)c1ccnc(NS(=O)(=O)C2CC2)n1 [Example P66] | 100 to 1000
6 | CC(C)Oc1cncc(-c2ccc(NC(=O)C(C)(C)c3ccnc(NS(=O)(=O)C4CC4)n3)cc2)n1 [Example P67] | ≤ 100
7 | CCOc1cncc(-c2ccc(NC(=O)C(C)(C)c3ccnc(NS(=O)(=O)C4(C)CC4)n3)cc2)n1 [Example P69] | 100 to 1000
8 | CC(C)(C(=O)Nc1ccc(-c2cnccn2)cc1)c1ccnc(NS(=O)(=O)C2CC2)n1 [Example P71] | 1000 to 10000
9 | CCOc1cncc(-c2ccc(NC(=O)C(C)(C)c3ccnc(NS(=O)(=O)CC)n3)c(F)c2)n1 [Example P72] | 100 to 1000
10 | CCS(=O)(=O)Nc1nccc(C(C)(C)C(=O)Nc2ccc(-c3cncc(C(F)(F)F)n3)cc2)n1 [Example P73] | 100 to 1000
11 | CCOc1cncc(-c2cnc(NC(=O)C(C)(C)c3ccnc(NS(C)(=O)=O)n3)c(F)c2)n1 [Example P75] | 100 to 1000
12 | CC(C)Oc1cncc(-c2ccc(NC(=O)C(C)(C)c3ccnc(NS(C)(=O)=O)n3)c(F)c2)c1 [Example P77] | 1000 to 10000
13 | CC(C)Oc1cncc(-c2ccc(NC(=O)C(C)(C)c3ccnc(NS(C)(=O)=O)n3)c(F)c2)n1 [Example P78] | 100 to 1000
14 | Cc1cc(-c2cncc(C(F)(F)F)n2)ccc1NC(=O)C(C)(C)c1ccnc(NS(C)(=O)=O)n1 [Example P79] | 100 to 1000
15 | CC(C)(C(=O)Nc1ccc(-c2cncc(C(F)(F)F)n2)cc1)c1ccnc(NS(C)(=O)=O)n1 [Example P80] | 100 to 1000
16 | CCOc1cncc(-c2ccc(NC(=O)C(C)(C)c3ccnc(NS(C)(=O)=O)n3)cc2)n1 [Example P81] | ≤ 100
17 | CCOc1cncc(-c2ccc(NC(=O)C(C)(C)c3ccnc(NS(=O)(=O)C(C)(C)C)n3)cc2)n1 [Example P82] | 1000 to 10000
18 | CC(C)c1cncc(-c2ccc(NC(=O)C(C)(C)c3ccnc(NS(=O)(=O)C4CC4)n3)nc2)n1 [Example P116, 2-(2-(Cyclopropanesulfonamido)pyrimidin-4-yl)-N-(5-(6-isopropylpyrazin-2-yl)pyridin-2-yl)-2-methylpropanamide] | 100 to 1000
19 | CCOc1cncc(-c2ccc(NC(=O)C(F)(F)c3ccnc(NS(=O)(=O)C4CC4)n3)c(F)c2)n1 [Example P117] | ≤ 100
20 | C=C(C)c1cncc(-c2ccc(NC(=O)C(C)(C)c3ccnc(NS(=O)(=O)C4CC4)n3)nc2)n1 [Example P122, 2-(2-(cyclopropanesulfonamido)pyrimidin-4-yl)-2-methyl-N-(5-(6-(prop-1-en-2-yl)pyrazin-2-yl)pyridin-2-yl)propanamide] | 100 to 1000
21 | CCOc1cncc(-c2ccc(NC(=O)C(C)(C)c3cc(C)nc(NS(=O)(=O)C4CC4)n3)nc2)n1 [Example P123] | 100 to 1000
22 | CCOc1cncc(-c2ccc(NC(=O)C(C)(C)c3cc(C(F)(F)F)nc(NS(=O)(=O)C4CC4)n3)nc2)n1 [Example P124] | 100 to 1000
23 | CCOc1cncc(-c2ccc(NC(=O)C(C)(C)c3ccnc(NS(=O)(=O)C4CC4)n3)cn2)n1 [Example P126] | ≤ 100
24 | CCOc1cncc(-c2ccc(NC(=O)C(C)(C)c3cc(C)nc(NS(=O)(=O)C4CC4)n3)c(F)c2)n1 [Example P129] | 100 to 1000
25 | CCOc1cncc(-c2ccc(NC(=O)C(C)(C)c3cc(C(F)(F)F)nc(NS(=O)(=O)C4CC4)n3)c(F)c2)n1 [Example P130] | 100 to 1000
26 | C=C(C)c1cncc(-c2ccc(NC(=O)C(C)(C)c3ccnc(NS(=O)(=O)C4CC4)n3)cc2)n1 [Example P131] | 100 to 1000
27 | CN(C)c1cncc(-c2ccc(NC(=O)C(C)(C)c3ccnc(NS(=O)(=O)C4CC4)n3)cc2)n1 [Example P133] | 1000 to 10000
28 | CCOc1cncc(-c2ccc(NC(=O)C(C)(C)c3cc(C)nc(NS(=O)(=O)C4CC4)n3)cc2)n1 [Example P134] | 100 to 1000
29 | CCOc1cncc(-c2ccc(NC(=O)C3(c4ccnc(NS(C)(=O)=O)n4)CCNCC3)nc2)n1 [Example P138] | 100 to 1000
30 | CCOc1cncc(-c2ccc(NC(=O)C3(c4ccnc(NS(=O)(=O)C5CC5)n4)CCNCC3)nc2)n1 [Example P140] | 100 to 1000

More lines, now with the values ahead:

Row | IC50 [nM] | Compound
31 | 100 to 1000 | CCOc1cncc(-c2ccc(NC(=O)C(C)(C)c3cc(C(F)(F)F)nc(NS(=O)(=O)C4CC4)n3)cc2)n1 [Example P135]
32 | ≤ 100 | CCOc1cncc(-c2ccc(NC(=O)C3(c4ccnc(NS(=O)(=O)C5CC5)n4)CCOCC3)cc2)n1 [Example P137]
33 | 100 to 1000 | CCOc1cncc(-c2ccc(NC(=O)C3(c4ccnc(NS(=O)(=O)C5CC5)n4)CCN(C(=O)OC(C)(C)C)CC3)nc2)n1 [Example P139]
34 | 100 to 1000 | CCOc1cncc(-c2ccc(NC(=O)C3(c4ccnc(NS(=O)(=O)C5CC5)n4)CN(C(=O)OC(C)(C)C)C3)nc2)n1 [Example P141]
35 | 100 to 1000 | CCOc1cncc(-c2ccc(NC(=O)C3(c4ccnc(NS(C)(=O)=O)n4)CCN(C(=O)OC(C)(C)C)CC3)nc2)n1 [Example P142]
36 | ≤ 100 | CCOc1cncc(-c2cnc(NC(=O)C(CCOC)c3ccnc(NS(=O)(=O)C4CC4)n3)c(F)c2)n1 (stereo not drawn) [Example P144]
37 | 100 to 1000 | CCOc1cncc(-c2ccc(NC(=O)C(C)(CCOC)c3ccnc(NS(C)(=O)=O)n3)nc2)n1 (stereo not drawn) [Example P147]
38 | ≤ 100 | CCC(C(=O)Nc1ccc(-c2cncc(Cl)c2)cn1)c1ccnc(NS(=O)(=O)C2CC2)n1 (stereo not drawn) [Example P148]
39 | ≤ 100 | CCC(F)(C(=O)Nc1ccc(-c2cncc(Cl)c2)cn1)c1ccnc(NS(=O)(=O)C2CC2)n1 (stereo not drawn) [Example P149]
40 | ≤ 100 | CCC(F)(C(=O)Nc1ccc(-c2cncc(C3CC3)n2)cn1)c1ccnc(NS(=O)(=O)C2CC2)n1 (stereo not drawn) [Example P150]
41 | ≤ 100 | CCOc1cncc(-c2ccc(NC(=O)C(F)(c3ccnc(NS(=O)(=O)C4CC4)n3)C(C)C)nc2)n1 (stereo not drawn) [Example P152]
42 | ≤ 100 | CCOc1cncc(-c2ccc(NC(=O)C(c3ccnc(NS(=O)(=O)C4CC4)n3)C(C)C)c(F)c2)n1 (stereo not drawn) [Example P153]
43 | ≤ 100 | CCOc1cncc(-c2ccc(NC(=O)C(c3ccnc(NS(=O)(=O)C4CC4)n3)C(C)C)nc2)n1 (stereo not drawn) [Example P154]
44 | ≤ 100 | CCC(C(=O)Nc1ccc(-c2cncc(C3CC3)n2)cn1)c1ccnc(NS(=O)(=O)C2CC2)n1 (stereo not drawn) [Example P156]
45 | ≤ 100 | CCC(C(=O)Nc1ccc(-c2cncc(OCC(F)(F)F)n2)cn1)c1ccnc(NS(=O)(=O)C2CC2)n1 (stereo not drawn) [Example P157]
46 | ≤ 100 | CCC(C(=O)Nc1ccc(-c2cncc(C3CC3)n2)cc1F)c1ccnc(NS(=O)(=O)C2CC2)n1 (stereo not drawn) [Example P160]
47 | 100 to 1000 | O=C(Cc1cccc(NS(=O)(=O)C2CC2)n1)Nc1ccc(-c2cncc(Cl)c2)cc1 [Example P167]
48 | 100 to 1000 | N#Cc1cncc(-c2ccc(NC(=O)Cc3cccc(NS(=O)(=O)C4CC4)n3)cc2)c1 [Example P168]
49 | 100 to 1000 | O=C(Cc1cccc(NS(=O)(=O)C2CC2)n1)Nc1ccc(-c2cncc(F)c2)cc1 [Example P169]
50 | 100 to 1000 | COc1cncc(-c2ccc(NC(=O)Cc3cccc(NS(=O)(=O)C4CC4)n3)cc2)c1 [Example P170]
51 | 1000 to 10000 | O=C(Cc1cccc(NS(=O)(=O)C2CC2)n1)Nc1ccc(-c2cccnc2)cc1 [Example P171]
